Reference: patent US9334279B2, “Hepatitis C virus inhibitors” (BRISTOL-MYERS SQUIBB COMPANY, priority 2012, dated 2016)
pEC50: −log10 of the molar value.

Tests used:
HCV GT1a(H77) replicon = assay: HCV replicon luciferase reporter assay, genotype 1a; format: cell-based, HCV genotype 1a; conditions: Hepatitis C virus, 72 h, HUH-7 cells, Renilla luciferase, 3 days incubation, read-out: LE_1a (EC50, range)
Method in brief: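 Huh-7 cells stably carried a GT1a(H77) Renilla luciferase replicon with NS3 P1496L and NS5A S2204I adaptive mutations. Luminescence was read after 2 h with 7.5 μM EnduRen, and EC50 came from a four-parameter logistic fit; CC50 came from multiplexed Cell Titer-Blue (8 h).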

HCV GT1b(Con1) replicon = assay: HCV replicon luciferase reporter assay, genotype 1b; format: cell-based, HCV genotype 1b; conditions: Hepatitis C virus, 72 h, HUH-7 cells, Renilla luciferase, 3 days incubation, read-out: LE_1b (EC50, range)
Method in brief: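 HUH-7 cells stably carrying a Con1 GT1b replicon with Renilla luciferase and Ser1179Ile adaptive mutation; 3.0×10^3 cells/well, DMEM 4% FCS, 0.5% DMSO, twenty-point 3-fold titration, 3 days 37 °C. Luminescence 2 h after 7.5 μM EnduRen; EC50 by four-parameter logistic fit. CC50 from multiplexed Cell Titer-Blue fluorescence (8 h).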

SMILES | pEC50 (HCV GT1a(H77) replicon) | pEC50 (HCV GT1b(Con1) replicon)
CC(C)Oc1ccc(-c2cc(O[C@@H]3C[C@H]4C(=O)N[C@]5(C(=O)NS(=O)(=O)C6(C)CC6)C[C@H]5/C=C\CC[C@@H](C)C[C@@H](C)[C@H](NC(=O)OC5(C(F)(F)F)CCCOC5)C(=O)N4C3)cc(-c3cscn3)n2)cc1 (stereo partly drawn) [Compound 1052, 3-(trifluoromethyl)tetrahydro-2H-pyran-3-yl ((2R,6S,7R,9R,13aS,14aR,16aS,Z)-2-((2-(4-isopropoxyphenyl)-6-(thiazol-4-yl)pyridin-4-yl)oxy)-7,9-dimethyl-14a-(((1-methylcyclopropyl)sulfonyl)carbamoyl)-5,16-dioxo-1,2,3,5,6,7,8,9,10,11,13a,14,14a,15,16,16a-hexadecahydrocyclopropa[e]pyrrolo[1,2-a][1,4]diazacyclopentadecin-6-yl)carbamate] | 9.30 to 10.00 | 9.00 to 9.29
CC[C@@H]1OCCC/C=C\[C@@H]2C[C@@]2(C(=O)NS(=O)(=O)C2(C)CC2)NC(=O)[C@@H]2C[C@@H](Oc3cc(-c4ccc(OC(C)C)cc4)nc(-c4cncs4)c3)CN2C(=O)[C@H]1NC(=O)OC1(C(F)(F)F)CCCOC1 (stereo partly drawn) [Compound 1038, 3-(trifluoromethyl)tetrahydro-2H-pyran-3-yl ((2R,6S,7S,13aS,14aR,16aS,Z)-7-ethyl-2-((2-(4-isopropoxyphenyl)-6-(thiazol-5-yl)pyridin-4-yl)oxy)-14a-(((1-methylcyclopropyl)sulfonyl)carbamoyl)-5,16-dioxo-2,3,5,6,7,9,10,11,13a,14,14a,15,16,16a-tetradecahydro-1H-cyclopropa[i]pyrrolo[1,2-e][1,5,8]oxadiazacyclopentadecin-6-yl)carbamate] | 8.30 to 9.00 | 9.00 to 9.29
CC(C)Oc1ccc(-c2cc(O[C@@H]3C[C@H]4C(=O)N[C@]5(C(=O)NS(=O)(=O)C6(C)CC6)C[C@H]5/C=C\CC[C@H](C)C[C@@H](C)[C@H](NC(=O)OC(C)(C)C(F)(F)F)C(=O)N4C3)cc(-c3ncccn3)n2)cc1 [Compound 1020, 1,1,1-trifluoro-2-methylpropan-2-yl ((2R,6S,7R,9S,13aS,14aR,16aS,Z)-2-((2-(4-isopropoxyphenyl)-6-(pyrimidin-2-yl)pyridin-4-yl)oxy)-7,9-dimethyl-14a-(((1-methylcyclopropyl)sulfonyl)carbamoyl)-5,16-dioxo-1,2,3,5,6,7,8,9,10,11,13a,14,14a,15,16,16a-hexadecahydrocyclopropa[e]pyrrolo[1,2-a][1,4]diazacyclopentadecin-6-yl)carbamate] | 7.46 to 8.30 | 8.30 to 9.00
CC(C)Oc1ccc(-c2cc(O[C@@H]3C[C@H]4C(=O)N[C@]5(C(=O)NS(=O)(=O)C6(C)CC6)C[C@H]5/C=C\CC[C@H](C)C[C@@H](C)[C@H](NC(=O)OC(C)(C)C(F)(F)F)C(=O)N4C3)cc(-c3cncs3)n2)cc1 [Compound 1004, 1,1,1-trifluoro-2-methylpropan-2-yl ((2R,6S,7R,9S,13aS,14aR,16aS,Z)-2-((2-(4-isopropoxyphenyl)-6-(thiazol-5-yl)pyridin-4-yl)oxy)-7,9-dimethyl-14a-(((1-methylcyclopropyl)sulfonyl)carbamoyl)-5,16-dioxo-1,2,3,5,6,7,8,9,10,11,13a,14,14a,15,16,16a-hexadecahydrocyclopropa[e]pyrrolo[1,2-a][1,4]diazacyclopentadecin-6-yl)carbamate] | 7.46 to 8.30 | 8.30 to 9.00
CC(C)Oc1ccc(-c2cc(O[C@@H]3C[C@H]4C(=O)N[C@]5(C(=O)NS(=O)(=O)C6(C)CC6)C[C@H]5/C=C\CC[C@@H](C)C[C@@H](C)[C@H](NC(=O)OC(C)(C)C(F)(F)F)C(=O)N4C3)cc(-c3cnccn3)n2)cc1 [Compound 1001, 1,1,1-trifluoro-2-methylpropan-2-yl ((2R,6S,7R,9R,13aS,14aR,16aS,Z)-2-((2-(4-isopropoxyphenyl)-6-(pyrazin-2-yl)pyridin-4-yl)oxy)-7,9-dimethyl-14a-(((1-methylcyclopropyl)sulfonyl)carbamoyl)-5,16-dioxo-1,2,3,5,6,7,8,9,10,11,13a,14,14a,15,16,16a-hexadecahydrocyclopropa[e]pyrrolo[1,2-a][1,4]diazacyclopentadecin-6-yl)carbamate] | 8.30 to 9.00 | 9.00 to 9.29
CC[C@@H]1C[C@H](C)CC/C=C\[C@@H]2C[C@@]2(C(=O)NS(=O)(=O)C2(C)CC2)NC(=O)[C@@H]2C[C@@H](Oc3ccnc(-c4nc(C)cs4)c3)CN2C(=O)[C@H]1NC(=O)OC(C)(C)C(F)(F)F [Compound 1055, 1,1,1-trifluoro-2-methylpropan-2-yl ((2R,6S,7R,9R,13aS,14aR,16aS,Z)-7-ethyl-9-methyl-14a-(((1-methylcyclopropyl)sulfonyl)carbamoyl)-2-((2-(4-methylthiazol-2-yl)pyridin-4-yl)oxy)-5,16-dioxo-1,2,3,5,6,7,8,9,10,11,13a,14,14a,15,16,16a-hexadecahydrocyclopropa[e]pyrrolo[1,2-a][1,4]diazacyclopentadecin-6-yl)carbamate] | 8.30 to 9.00 | 8.30 to 9.00
CC[C@@H]1O[C@H](C)CC/C=C\[C@@H]2C[C@@]2(C(=O)NS(=O)(=O)C2(C)CC2)NC(=O)[C@@H]2C[C@@H](Oc3cc(-c4ccc(OC(C)C)cc4)nc(-c4ccccn4)c3)CN2C(=O)[C@H]1NC(=O)OC1(C(F)(F)F)CCCOC1 (stereo partly drawn) [Compound 1037, 3-(trifluoromethyl)tetrahydro-2H-pyran-3-yl ((2R,6S,7S,9R,13aS,14aR,16aS,Z)-7-ethyl-2-((6-(4-isopropoxyphenyl)-[2,2′-bipyridin]-4-yl)oxy)-9-methyl-14a-(((1-methylcyclopropyl)sulfonyl)carbamoyl)-5,16-dioxo-2,3,5,6,7,9,10,11,13a,14,14a,15,16,16a-tetradecahydro-1H-cyclopropa[i]pyrrolo[1,2-e][1,5,8]oxadiazacyclopentadecin-6-yl)carbamate] | 8.30 to 9.00 | 9.30 to 10.00
C[C@H]1CC/C=C\[C@@H]2C[C@@]2(C(=O)NS(=O)(=O)C2(C)CC2)NC(=O)[C@@H]2C[C@@H](Oc3cc(-c4nccs4)nc(-c4nccs4)c3)CN2C(=O)[C@@H](NC(=O)OC(C)(C)C(F)(F)F)[C@H](C)C1 [Compound 1024, 1,1,1-trifluoro-2-methylpropan-2-yl ((2R,6S,7R,9S,13aS,14aR,16aS,Z)-2-((2,6-di(thiazol-2-yl)pyridin-4-yl)oxy)-7,9-dimethyl-14a-(((1-methylcyclopropyl)sulfonyl)carbamoyl)-5,16-dioxo-1,2,3,5,6,7,8,9,10,11,13a,14,14a,15,16,16a-hexadecahydrocyclopropa[e]pyrrolo[1,2-a][1,4]diazacyclopentadecin-6-yl)carbamate] | 8.30 to 9.00 | 9.00 to 9.29
CC(C)Oc1ccc(-c2cc(O[C@@H]3C[C@H]4C(=O)N[C@]5(C(=O)NS(=O)(=O)C6(C)CC6)C[C@H]5/C=C\CC[C@@H](C)C[C@@H](C)[C@H](NC(=O)OC(C)(C)C(F)(F)F)C(=O)N4C3)cc(-c3ccncc3)n2)cc1 [Compound 1009, 1,1,1-trifluoro-2-methylpropan-2-yl ((2R,6S,7R,9R,13aS,14aR,16aS,Z)-2-((6-(4-isopropoxyphenyl)-[2,4′-bipyridin]-4-yl)oxy)-7,9-dimethyl-14a-(((1-methylcyclopropyl)sulfonyl)carbamoyl)-5,16-dioxo-1,2,3,5,6,7,8,9,10,11,13a,14,14a,15,16,16a-hexadecahydrocyclopropa[e]pyrrolo[1,2-a][1,4]diazacyclopentadecin-6-yl)carbamate] | 8.30 to 9.00 | 8.30 to 9.00
Cc1cnc(-c2cc(O[C@@H]3C[C@H]4C(=O)N[C@]5(C(=O)NS(=O)(=O)C6(C)CC6)C[C@H]5/C=C\CC[C@@H](C)C[C@@H](C)[C@H](NC(=O)OC5(C(F)(F)F)CCCOC5)C(=O)N4C3)ccn2)s1 (stereo partly drawn) [Compound 1044, 3-(trifluoromethyl)tetrahydro-2H-pyran-3-yl ((2R,6S,7R,9R,13aS,14aR,16aS,Z)-7,9-dimethyl-14a-(((1-methylcyclopropyl)sulfonyl)carbamoyl)-2-((2-(5-methylthiazol-2-yl)pyridin-4-yl)oxy)-5,16-dioxo-1,2,3,5,6,7,8,9,10,11,13a,14,14a,15,16,16a-hexadecahydrocyclopropa[e]pyrrolo[1,2-a][1,4]diazacyclopentadecin-6-yl)carbamate] | 8.30 to 9.00 | 9.00 to 9.29
COc1cccc(-c2cc(O[C@@H]3C[C@H]4C(=O)N[C@]5(C(=O)NS(=O)(=O)C6(C)CC6)C[C@H]5/C=C\CC[C@@H](C)C[C@@H](C)[C@H](NC(=O)OC(C)(C)C(F)(F)F)C(=O)N4C3)cc(-c3ccc(OC(C)C)cc3)n2)n1 [Compound 1011, 1,1,1-trifluoro-2-methylpropan-2-yl ((2R,6S,7R,9R,13aS,14aR,16aS,Z)-2-((6-(4-isopropoxyphenyl)-6′-methoxy-[2,2′-bipyridin]-4-yl)oxy)-7,9-dimethyl-14a-(((1-methylcyclopropyl)sulfonyl)carbamoyl)-5,16-dioxo-1,2,3,5,6,7,8,9,10,11,13a,14,14a,15,16,16a-hexadecahydrocyclopropa[e]pyrrolo[1,2-a][1,4]diazacyclopentadecin-6-yl)carbamate] | 8.30 to 9.00 | 8.30 to 9.00
